Molecules are shown by their SMILES.

The text below walks through data of patent US20210189367A1, “Inducible Cell Receptors for Cell-Based Therapeutics” (Senti Biosciences, Inc., priority 2017, published 2021).

What all share (format): cell-based, human
Experiment [1] deals with Jurkat cells transduced with an anti-Her2 CAR fused to a self-excising degron. Put plainly: T cell activation (CD69) of anti-Her2 CAR-degron Jurkat cells on recombinant Her2. The conditions noted are these: 1 μM ASV 2 days, then recombinant Her2-coated plates overnight, even at high Her2 (10 μg/mL). On the procedure:
The function of an anti-Her2 CAR fused to a self-excising degron in T cells was tested in vitro. Jurkat cells (an immortalized human T cell line) were transduced with an anti-Her2 CAR fused to a self-excising degron (SEQ ID NO: 4). These cells were incubated in the presence (1 μM ASV) or absence of the ASV protease inhibitor for 2 days, then subsequently placed on tissue culture plates coated with recombinant Her2 (low=2.5 μg/mL; high=10 μg/mL). Following overnight incubation, the ant-Her2 CAR T cells were stained with an anti-CD69 fluorescent antibody, and the mean fluorescence of each cell population was measured using flow cytometry. CD69 was used as a T-cell activation marker.

In experiment [2] the test system is CAR. Put plainly: Switchable expression of CAR by application of ASV (YFP, flow cytometry), CAR T cells. From the text: The first fusion protein (left) comprises an extracellular protein binding domain fused to a myc tag and three intracellular signaling domains fused to YFP. The second fusion protein (middle; “CAR-SMASh”) further comprises a Hepatitis C (HCV) NS4A-NS4B protease cleavage site, a HCV NS3 protease domain, and a degron derived from the HCV NS4A protein. The CAR-SMASh, therefore, expresses CAR, but induces degradation of CAR in the presence of ASV. The third fusion protein (right; “CAR-SMASh[GGS]”) is a CAR-SMASh mutant lacking the NS4 degron.
(§1) Human total pan T cells were isolated from PBMC donors by magnetic-assisted cell sorting using StemCell Technologies Total Pan T Cell Isolation Kit and stimulated with anti-CD3/28 Dynabeads at a 1:3 ratio (T cells:Dynabeads), 10^6 T cells with 3×10^Dynabeads, in CTS OpTmizer media with CTS Serum Replacement and recombinant human IL-2 [100 U/ml]. One day later T cells were then transduced with lentivirus carrying a CAR comprising anti-HER2 or anti-CD19 scFv. Specifically, lentivirus encoding CAR, CAR-SMASh and CAR-SMASh[GGS] comprising anti-HER2 or anti-CD19 scFv was transduced. CAR-T cells were then split into a larger well with fresh media added. On Day 5 CAR-T cells were exposed to ASV [2 μM] and then analyzed by flow cytometry to measure YFP expression at various time points, including on day 6 (FIG. 13) and on day 7 (FIG. 14).
On the technique in general: A flow cytometer gives signals particle by particle.

The subject of experiment [3] is CAR. Nature of the experiment: Switchable expression of CAR by removal of ASV (YFP, flow cytometry), CAR T cells. To be noted: T cells transduced with CAR (FIG. 16A).
Description: as §1, with “3×10^6 Dynabeads,” for “3×10^Dynabeads,”, “for 2 days, washed 2 times, then re-cultured in media without ASV” for “[2 μM]”, “were acquired” for “analyzed”, “cytometry” for “cytometry to measure YFP expression”, “points” for “points, including on day 6 (FIG. 13)”, “YFP expression was measured.” for “on day 7 (FIG. 14).”

For experiment [4], the system named is CAR-T cells co-cultured with target HER2+ SKOV3 tumor cells. Put plainly: Cytokine production by CAR-T cells co-cultured with target tumor cells, Luminex multi-cytokine array. The conditions noted are these: CAR-SMASh T cells, ASV 2 μM, E:T 10:1. From the text: Human […] pan T cells were isolated from PBMC donors by magnetic-assisted cell sorting using StemCell Technologies Total Pan T Cell Isolation Kit and stimulated with anti-CD3/28 Dynabeads at a 1:3 ratio (T cells:Dynabeads), 10^6 T cells with 3×10^6 Dynabeads, in CTS OpTmizer media with CTS Serum Replacement and recombinant human IL-2 [100 U/ml]. 1 day later T cells were then transduced with lentivirus carrying anti-HER2 scFv CAR-SMASh designs. CAR-T cells were then split into a larger well with fresh media added. On Day 6 CAR-T cells were treated with ASV [2 μM] for 2 days. On Day 8 CAR-T cells were washed, replenished with ASV, and co-cultured with target HER2+ SKOV3 tumor cells at (10:1) effector-to-target (E:T) ratio, incubated overnight, and supernatants collected the next day. Cytokines were measured by Luminex multi-cytokine array using a Luminex MagPix (Sigma Millipore).

Consider `C=C[C@@H]1C[C@]1(NC(=O)[C@@H]1C[C@@H](Oc2ncc(OC)c3ccc(Cl)cc23)CN1C(=O)[C@@H](NC(=O)OC(C)(C)C)C(C)(C)C)C(=O)NS(=O)(=O)C1CC1` [ASV, Asunaprevir], for which the “cells activated (CD69)” value in experiment [1] is “less than 25%”. Further, the “CAR expression (percentage YFP+ and YFP MFI)” value in experiment [2] (CAR T cells, ASV 2 μM, day 6 (FIG. 13)) is “no effect”. In addition, in experiment [2] (T cells expressing CAR (FIG. 15A)), the “CAR expression (percentage YFP+) over time after addition of ASV” value was “no effect”. For the same molecule, the “reversible effects on CAR expression (percentage YFP+) after removal of ASV” value in experiment [3] is “not observed”. The IFN-gamma production entry in experiment [4] (overnight (FIG. 19A)) is reported as “decreased production”. In addition, the IL-lalpha production entry in experiment [4] (overnight (FIG. 19B)) is recorded as “decreased production”. For the same molecule, in experiment [4] (overnight (FIG. 19C)), the IL-6 production result was “decreased production”.
